Earlier results, collected in patent US20190151045A1, “Device and Methods for Disinfecting Dental Lines” (Toppen Medical Dental LLC, priority 2017, published 2019).
Like-named read-outs stand apart in the source and are kept apart here.

Details: dissipates into molecular oxygen, 0.5 mg/L ozone in dental water line

SMILES: O=[O+][O-] [ozone]
- half-life (t1/2) of ozone: ~20 min
- half-life (t1/2) of ozone (listed as Ozone): about 20 min
